From US11395821B2, “Treatment of EGFR-driven cancer with fewer side effects” (G1 Therapeutics, Inc., priority 2017, dated 2022)
Read-outs that look alike come from different tables or passages of the source.

How the values were obtained:
[1] = cited from earlier work
[2] = cited from earlier work; remark: listed apart in the source
[3] = cited from earlier work; remark: listed apart in the source
[4] = cited from earlier work; for Grade ≥3 decrease in neutrophil count: laboratory findings
[5] = system: EGFR^ex20ins PDX NSCLC tumor fragments (LU0387, CrownBio); assay: Example 5: Compound IV +/- osimertinib in EGFR ex20ins PDX model; type: in vivo, BALB/c nude mice; settings: once daily oral gavage, 17 days; Compound IV 100 mg/kg or osimertinib 10 mg/kg alone
Description: (§1) The x-axis is days from initiation measured in time and the y-axis is mean tumor volume measured in mm^3.
Tumors continued to be measured until they reached tumor burden (>3000 mm3).

[6] = system: EGFR^ex19del/T790M PDX NSCLC tumor fragments (TM00219, Jackson Labs); assay: Example 4: Compound IV +/- osimertinib in EGFR ex19del/T790M PDX model; type: in vivo, NSG mice; settings: once daily oral gavage 28 days; Compound IV 100 mg/kg or osimertinib 2.5 mg/kg alone
Description: as §1
The x-axis is days from initiation measured in time and the y-axis is median tumor volume measured in mm^3.
After 28 days tumors continued to be measured until they reached tumor burden (>2000 mm^3).

[7] = human, in vivo; cited from earlier work
[8] = in vivo; cited from earlier work
[9] = cited from earlier work; remark: listed apart in the source
[10] = cited from earlier work; remark: listed apart in the source
[11] = all grades, GILOTRIF n=229, pemetrexed/cisplatin n=111

CN(C)C/C=C/C(=O)Nc1cc2c(Nc3ccc(F)c(Cl)c3)ncnc2cc1O[C@H]1CCOC1 [GILOTRIF, afatinib]
fatal liver test abnormalities ([1]; 3865 patients): 0.18%
liver test abnormalities ([1]; 3865 patients): 10.1%
diarrhea [1, 11]: 96%
dry skin [1, 11]: 31%
paronychia [1, 11]: 58%
pruritus [1, 11]: 21%
rash/acneiform dermatitis [1, 11]: 90%
stomatitis [1, 11]: 71%
decreased appetite ([1]; human, in vivo): 29%
fatal pneumonia ([1]; human, in vivo): 0.43%
fatal pulmonary toxicity/interstitial lung disease (ILD)-like adverse reactions ([1]; human, in vivo): 1.3%
fatal sepsis ([1]; human, in vivo): 0.43%
nausea ([1]; human, in vivo): 25%
serious adverse reaction: diarrhea ([1]; human, in vivo): 6.6%
serious adverse reaction: dyspnea ([1]; human, in vivo): 1.7%
serious adverse reaction: fatigue ([1]; human, in vivo): 1.7%
serious adverse reaction: hypokalemia ([1]; human, in vivo): 1.7%
serious adverse reaction: vomiting ([1]; human, in vivo): 4.8%
serious adverse reactions ([1]; human, in vivo): 29%
ventricular dysfunction (all <Grade 3) ([1]; human, in vivo): 2.2%
vomiting ([1]; human, in vivo): 23%

COc1cc2ncnc(Nc3ccc(F)c(Cl)c3)c2cc1OCCCN1CCOCC1 [IRESSA, gefitinib]
skin reactions ([2]; across NSCLC): 47%
incidence of fatal hepatotoxicity ([2]; human, in vivo): 0.04%

C#Cc1cccc(Nc2ncnc3cc(OCCOC)c(OCCOC)cc23)c1.Cl [TARCEVA, erlotinib]
overall incidence of ILD ([3]; approximately 32,000 patients, all studies): approximately 1.1%
discontinued therapy due to adverse reactions ([3]; human, in vivo): 14.3%
dose interruptions or reductions due to adverse reactions ([3]; human, in vivo): 37%
dose modification due to asthenia ([3]; human, in vivo): 3.6%
dose modification due to diarrhea ([3]; human, in vivo): 10%
dose modification due to rash ([3]; human, in vivo): 13%
liver function test abnormalities (ALT, AST, bilirubin) ([3]; human, in vivo): Grade 2 and Grade 3 liver function test abnormalities
median time to onset of diarrhea ([3]; human, in vivo): 32 days
median time to onset of rash ([3]; human, in vivo): 15 days
most frequent Grade 3-4 adverse reactions ([3]; human, in vivo): rash and diarrhea
most frequent adverse reactions: diarrhea, asthenia, rash, cough, dyspnea, decreased appetite ([3]; human, in vivo): ≥ 30%
median onset of ILD symptoms after initiating therapy ([3]; patients with ILD): 39 days
onset of ILD symptoms after initiating therapy (span) ([3]; patients with ILD): between 5 days to more than 9 months

CCN1CCN(Cc2ccc(Nc3ncc(F)c(-c4cc(F)c5nc(C)n(C(C)C)c5c4)n3)nc2)CC1 [abemaciclib]
Grade ≥3 decrease in neutrophil count ([4]; MONARCH 1): 27%
Grade 3 diarrhea ([4]; alone, MONARCH 1): 20%
diarrhea ([4]; alone, MONARCH 1): 90%
neutropenia ([4]; alone, MONARCH 1): 37%
alanine aminotransferase (ALT) increased ([4]; human, in vivo): 41%
aspartate aminotransferase (AST) increased ([4]; human, in vivo): 37%
dose reductions due to diarrhea of any grade ([4]; human, in vivo): 19%
dose reductions due to neutropenia of any grade ([4]; human, in vivo): 10%
permanent treatment discontinuation due to an adverse event ([4]; human, in vivo): 9%
Grade 3 diarrhea ([4]; plus fulvestrant, MONARCH 2): 13%
diarrhea ([4]; plus fulvestrant, MONARCH 2): 86%
neutropenia ([4]; plus fulvestrant, MONARCH 2): 46%
Grade ≥3 decrease in neutrophil count ([4]; plus fulvestrant, MONARCH 2): 32%
dose reductions due to an adverse reaction ([4]; plus fulvestrant): 43%

C=CC(=O)Nc1cc(Nc2nccc(-c3cn(C)c4ccccc34)n2)c(OC)cc1N(C)CCN(C)C [osimertinib, reference compound]
tumor growth vs vehicle, single agent [5]: did not cause an effect
tumor growth vs vehicle, single agent [6]: modest tumor growth inhibition
nail toxicity [7]: 22%
patients experiencing Grade 3 neutropenia [7]: up to 2.2%

CC(=O)c1c(C)c2cnc(Nc3ccc(N4CCNCC4)cn3)nc2n(C2CCCC2)c1=O [palbociclib]
T½ [8]: roughly 27 hours
incidence of neutropenia ([9]; Study 1 (PALOMA-2)): 80%
incidence of neutropenia ([9]; Study 2 (PALOMA-3)): 83%
complete drug discontinuation ([9]; human, in vivo): 8%
median duration of Grade ≥3 neutropenia ([9]; human, in vivo): 7 days
median time to first episode of any grade neutropenia ([9]; human, in vivo): 15 days
patients requiring a dose interruption ([9]; human, in vivo): 71%
patients requiring a dose reduction ([9]; human, in vivo): 36%
Grade ≥3 decrease in neutrophil counts ([9]; patients in PALOMA-2 and PALOMA-3): 66%
increased alanine transferase ([9]; patients treated): 40%
increased aspartate aminotransferase (AST) ([9]; patients treated): 48%

CN(C)C(=O)c1cc2cnc(Nc3ccc(N4CCNCC4)cn3)nc2n1C1CCCC1 [ribociclib]
Grade 3 or 4 increases in ALT ([10]; KISQALI treatment arms): 10%
Grade 3 or 4 increases in AST ([10]; KISQALI treatment arms): 7%
patients with at least one average QTcF interval of more than 480 msec after baseline ([10]; MONALEESA-2 study): 3.3%
alopecia ([10]; adverse reaction): 33%
back pain ([10]; adverse reaction): 20%
constipation ([10]; adverse reaction): 25%
diarrhea ([10]; adverse reaction): 35%
fatigue ([10]; adverse reaction): 37%
headache ([10]; adverse reaction): 22%
leukopenia ([10]; adverse reaction): 33%
neutropenia ([10]; adverse reaction): 75%
vomiting ([10]; adverse reaction): 29%
Grade 3/4 decrease in neutrophil count ([10]; based on laboratory findings): 60%
treatment discontinuation due to increased ALT ([10]; first mention): 4%
QT interval ([10]; human, in vivo): prolong the QT interval in a concentration-dependent manner
dose reductions due to adverse reactions ([10]; human, in vivo): 45%
permanent discontinuations due to ARs ([10]; human, in vivo): 7%
treatment discontinuation due to vomiting ([10]; human, in vivo): 2%
treatment discontinuation due to increased ALT ([10]; second mention): 3%
